According to patent US10375956B2, “Herbicidally active 2-(substituted-phenyl)-cyclopentane-1,3-dione compounds and derivatives thereof” (Syngenta Limited, priority 2013, dated 2019):

Columns and labels:
Assay type in all cases: in vivo
[1] = system: Echinochloa crus-galli (ECHCG); experiment: Test 1 glasshouse assay, post-emergence herbicidal activity; conditions: 312 h, post-emergence (Example 1B Table 1), after 13 days, read-out: Percentage phytotoxicity ECHCG
Method in brief: (§1)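 Plants sprayed 8 days after sowing with active ingredient in acetone/water (50:50) containing 0.5% Tween 20, grown in glasshouse at 24/16°C day/night, 14 h light, 65% humidity. Phytotoxicity scored visually after 13 days as percentage damage (100% = total damage; 0% = none).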

[2] = system: Alopecurus myosuroides (ALOMY); experiment: as above; conditions: 312 h, post-emergence (Example 1B Table 1), after 13 days, read-out: Percentage phytotoxicity ALOMY
Method in brief: as §1

[3] = system: Zea mays (ZEAMX, corn/maize); experiment: Test 1 glasshouse assay, pre-emergence herbicidal activity; conditions: 312 h, visual evaluation after 13 days, read-out: Percentage phytotoxicity ZEAMX
Method in brief: (§2)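 Pre-emergence spray 1 d post-sowing; acetone/water 50:50, 0.5% Tween 20 vehicle. Glasshouse 24/16° C, 14 h light, 65% RH. Visual % phytotoxicity at 13 d, 100% = total damage, 0% = none.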

Setaria faberi (SETFA) = experiment: as above; conditions: 312 h, visual evaluation after 13 days, read-out: Percentage phytotoxicity SETFA
Method in brief: as §2

[4] = system: Echinochloa crus-galli (ECHCG); experiment: as above; conditions: 312 h, visual evaluation after 13 days, read-out: Percentage phytotoxicity ECHCG
Method in brief: as §2

[5] = system: Abutilon theophrasti (ABUTH); experiment: as above; conditions: 312 h, visual evaluation after 13 days, read-out: Percentage phytotoxicity ABUTH
Method in brief: as §2

[6] = system: Amaranthus retroflexus (AMARE); experiment: as above; conditions: 312 h, visual evaluation after 13 days, read-out: Percentage phytotoxicity AMARE
Method in brief: as §2

[7] = system: Alopecurus myosuroides (ALOMY); experiment: as above; conditions: 312 h, visual evaluation after 13 days, read-out: Percentage phytotoxicity ALOMY
Method in brief: as §2

| Structure (SMILES) | pest or weed control at 30 g/ha [1] [%] | pest or weed control at 250 g/ha [1] [%] | pest or weed control at 30 g/ha [2] [%] | pest or weed control at 250 g/ha [2] [%] | pest or weed control at 250 g/ha [3] [%] | pest or weed control at 250 g/ha (Setaria faberi (SETFA)) [%] | pest or weed control at 250 g/ha [4] [%] | pest or weed control at 250 g/ha [5] [%] | pest or weed control at 250 g/ha [6] [%] | pest or weed control at 250 g/ha [7] [%] |
| --- | --- | --- | --- | --- | --- | --- | --- | --- | --- | --- |
| C#CCC1CC(=O)C(c2c(F)cc(-c3ccc(F)cc3)cc2OC)C1=O (centres unmarked) [Compound A20, 2-[2-fluoro-4-(4-fluorophenyl)-6-methoxyphenyl]-4-prop-2-ynylcyclopentane-1,3-dione] | 80 | 100 | 50 | 100 | 100 | 100 | 100 | 70 | 70 | 90 |
| C#CCC1CC(=O)C(c2c(F)cc(-c3ccc(F)cc3F)cc2OC)C1=O (centres unmarked) [Compound A21] | 90 | 100 | 40 | 70 | 100 | 90 | 90 | 10 | 0 | 80 |
